Measurements from PMC11202169, “A Novel Fluorescence-Based Microplate Assay for High-Throughput Screening of hSULT1As Inhibitors” (Biosensors, 2024).
Read-outs that look alike come from different tables or passages of the source.

Tests used:
Assay type in all cases: biochemical
[1] = target: T1, hSULT1A1 (Homo sapiens, UniProt P50225); assay: Fluorescence-based microplate inhibition assay, hSULT1A1-catalyzed HN-241 4-O-sulfation; conditions: for IC50: hSULT1A1-catalyzed HN-241 4-O-sulfation; for activity at 1 µM: read-out: Residue activity (%) hSULT1A1;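 on all read-outs here: reaction started with 200 µM PAPS at 37 °C, fluorescence read continuously (Ex 350 nm, Em 450 nm), activity expressed relative to DMSO-only control without inhibitor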
T1 construct: 6-histidine tag (N); TEV site (N); made in house; host or cells: Escherichia coli BL21 (DE3), pET29a(+)

[2] = target: T2, hSULT1A2 (Homo sapiens, UniProt P50226); assay: Fluorescence-based microplate inhibition assay, hSULT1A2-catalyzed HN-241 4-O-sulfation; conditions: for remaining activity at 10 µM: 0.25 h, read-out: Residue activity (%) hSULT1A2
T2 construct: 6-histidine tag (N); TEV site (N); made in house; host or cells: Escherichia coli BL21 (DE3), pET29a(+)

[3] = target: T3, hSULT1A3 (Homo sapiens, UniProt P0DMM9); assay: Fluorescence-based microplate inhibition assay, hSULT1A3-catalyzed HN-241 4-O-sulfation; conditions: for IC50: hSULT1A3-catalyzed HN-241 4-O-sulfation; for activity at 10 µM: read-out: Residue activity (%) hSULT1A3
T3 construct: 6-histidine tag (N); TEV site (N); made in house; host or cells: Escherichia coli BL21 (DE3), pET29a(+)

[4] = test compound 1 μM, HN-241 1 μM, 15 min
[5] = test compound 10 μM, HN-241 5 μM, 15 min
[6] = hSULT1A2-catalyzed HN-241 4-O-sulfation
[7] = test compound 10 μM, HN-241 10 μM, 15 min

T3 sequence (P0DMM9 whole entry): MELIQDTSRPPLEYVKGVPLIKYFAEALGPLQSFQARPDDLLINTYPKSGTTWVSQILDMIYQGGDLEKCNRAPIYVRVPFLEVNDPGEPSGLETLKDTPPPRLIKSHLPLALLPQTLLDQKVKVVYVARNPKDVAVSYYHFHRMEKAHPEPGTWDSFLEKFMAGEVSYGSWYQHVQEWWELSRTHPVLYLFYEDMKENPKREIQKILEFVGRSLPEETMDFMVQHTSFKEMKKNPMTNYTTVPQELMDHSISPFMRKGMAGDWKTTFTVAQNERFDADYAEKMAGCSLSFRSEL
T1 sequence (P50225 whole entry): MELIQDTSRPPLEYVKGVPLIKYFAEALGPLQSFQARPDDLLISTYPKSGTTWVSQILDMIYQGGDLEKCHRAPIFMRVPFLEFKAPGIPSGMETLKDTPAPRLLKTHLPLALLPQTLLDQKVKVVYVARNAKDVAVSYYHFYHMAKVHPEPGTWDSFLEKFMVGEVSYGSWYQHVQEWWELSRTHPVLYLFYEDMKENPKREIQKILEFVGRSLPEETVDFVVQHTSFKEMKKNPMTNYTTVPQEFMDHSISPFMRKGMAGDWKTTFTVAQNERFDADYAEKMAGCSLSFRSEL
T2 sequence (P50226 whole entry): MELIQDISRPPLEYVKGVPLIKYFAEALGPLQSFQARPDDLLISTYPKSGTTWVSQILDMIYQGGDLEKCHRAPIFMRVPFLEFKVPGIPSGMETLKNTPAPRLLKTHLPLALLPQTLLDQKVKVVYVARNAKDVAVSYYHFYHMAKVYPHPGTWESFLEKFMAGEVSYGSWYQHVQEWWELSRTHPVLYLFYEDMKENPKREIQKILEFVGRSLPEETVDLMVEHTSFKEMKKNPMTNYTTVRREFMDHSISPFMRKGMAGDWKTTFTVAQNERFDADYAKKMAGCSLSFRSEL

Compound	activity at 1 µM [1, 4] [%]	remaining activity at 10 µM [2, 5] [%]	activity at 10 µM [3, 7] [%]	also measured
O=c1cc(-c2ccc(Oc3c(O)cc4oc(-c5ccc(O)cc5)cc(=O)c4c3O)cc2)oc2cc(O)cc(O)c12 [Hinokiflavone]	0	0	9.46	IC50 [1]: 18.9 ± 1.17 nM; IC50 [2, 6]: 110 ± 14.7 nM; IC50 [3]: 2130 ± 182 nM
C=C(C)[C@H]1Cc2c(ccc3c2O[C@@H]2COc4cc(OC)c(OC)cc4[C@@H]2C3=O)O1 [Rotenone]				activity at 1 µM [1]: 109%; remaining activity at 10 µM [2]: 102%; activity at 10 µM [3]: 106%
O=C1c2cccc(O)c2C(=O)c2c(O)cc(CO)cc21 [Aloeemodin]	0.21	0	61.3	IC50 [2, 6]: 118 ± 7.2 nM
Cc1cc(O)c2c(c1)C(=O)c1cccc(O)c1C2=O [Chrysophanic acid]	3.52	45.4	99.3	
CC(C)=CCC[C@](C)(O)[C@H]1CC[C@]2(C)[C@@H]1[C@H](O)C[C@@H]1[C@@]3(C)CC[C@H](O)C(C)(C)[C@@H]3[C@@H](O[C@@H]3O[C@H](CO)[C@@H](O)[C@H](O)[C@H]3O[C@@H]3O[C@@H](C)[C@H](O)[C@@H](O)[C@H]3O)C[C@]12C [Ginsenoside Rg2]	113	106	100	
C=C(CCC=C(C)C)[C@H]1CC[C@]2(C)[C@@H]1[C@H](O)C[C@@H]1[C@@]3(C)CC[C@H](O[C@@H]4O[C@H](CO)[C@@H](O)[C@H](O)[C@H]4O)C(C)(C)[C@@H]3CC[C@]12C [Ginsenoside Rk2]				Residue activity (%) hSULT1A1 [1, 4]: 97.02%; Residue activity (%) hSULT1A2 [2, 5]: 106.88%; Residue activity (%) hSULT1A3 [3, 7]: 94.83%
COc1c2occc2cc2ccc(=O)oc12 [8-Methoxypsoralen]	107	110	119	
COc1cc(O)c(CC=C(C)C)c2c1C(=O)CC(c1ccc(O)cc1)O2 (stereo not drawn) [Isoxanthohumol]	15.8	68.4	88	
COC1=C[C@@H]2[C@@H]3Cc4ccc(OC)c(O)c4[C@]2(CCN3C)CC1=O [Sinomenine]	103	103	110	
Sennosides				Residue activity (%) hSULT1A1 [1, 4]: 26.92%; Residue activity (%) hSULT1A2 [2, 5]: 3.06%; Residue activity (%) hSULT1A3 [3, 7]: 19.21%
Ginkgolic acid				Residue activity (%) hSULT1A1 [1, 4]: 12.05%; Residue activity (%) hSULT1A2 [2, 5]: 13.44%; Residue activity (%) hSULT1A3 [3, 7]: 66.66%
COc1ccc(-c2cc(=O)c3c(O)c(OC)c(O)cc3o2)cc1 [Pectolinarigenin]	1.12	0	1.34	IC50 [1]: 9.52 ± 0.39 nM; IC50 [2, 6]: 87.2 ± 3.16 nM; IC50 [3]: 4360 ± 252 nM
C=C(C)[C@@H]1CC[C@]2(C(=O)O)CC[C@]3(C)[C@H](CC[C@@H]4[C@@]5(C)CC[C@@H](O)C(C)(C)[C@@H]5CC[C@]43C)[C@@H]12 [Epibetulinic acid]	106	111	121	
Gomisin A				Residue activity (%) hSULT1A1 [1, 4]: 129.03%; Residue activity (%) hSULT1A2 [2, 5]: 97.44%; Residue activity (%) hSULT1A3 [3, 7]: 122.78%
CC(C)[C@]12O[C@H]1[C@@H]1O[C@]13[C@]1(O[C@H]1C[C@H]1C4=C(CC[C@@]13C)C(=O)OC4)[C@@H]2O [Triptolide]	109	119	110	
Oc1cc(O)c2c(c1)O[C@@H](c1ccc(O)c(O)c1)[C@H](O)C2 [(-)-Catechin]	41.4	101	46.8	
CC(C)Oc1ccc2c(=O)c(-c3ccccc3)coc2c1 [Ipriflavone]	61.3	89.5	117	
CC(C)=CC/C=C(/C)[C@H]1CC[C@]2(C)[C@@H]1[C@H](O)C[C@@H]1[C@@]3(C)CC[C@H](O)C(C)(C)[C@@H]3[C@@H](O[C@@H]3O[C@H](CO)[C@@H](O)[C@H](O)[C@H]3O[C@@H]3O[C@@H](C)[C@H](O)[C@@H](O)[C@H]3O)C[C@]12C [Ginsenoside F4]				Residue activity (%) hSULT1A1 [1, 4]: 99.89%; Residue activity (%) hSULT1A2 [2, 5]: 89.89%; Residue activity (%) hSULT1A3 [3, 7]: 99.83%
COc1ccc(-c2cc(=O)c3c(O)cc(O)cc3o2)cc1-c1c(O)cc(O)c2c(=O)cc(-c3ccc(O)cc3)oc12 [Bilobetin]	24	0	42.3	IC50 [2, 6]: 55.5 ± 1.3 nM; Inhibition manner ([2]; inhibition kinetic assay, hSULT1A2-catalyzed HN-241 4-O-sulfation): mixed inhibition
C[C@]12CC[C@H](O)C[C@H]1CC[C@@H]1[C@@H]2CC[C@]2(C)[C@@H](c3ccc(=O)oc3)C[C@H]3O[C@]132 [Resibufogenin]				activity at 1 µM [1]: 127%; remaining activity at 10 µM [2]: 99.2%; activity at 10 µM [3]: 113%
